Tests used:
[1] = system: eye; conditions: tested in the form of an isopropyl ester prodrug; cited from earlier work
[2] = system: Normal human epithelial keratinocytes; assay: Antiproliferative effect on cultured keratinocytes, crystal violet method, absorbance at 595 nm; type: cell-based; conditions: for antiproliferative potency relative to PGA2 and the other analogues: normal human epithelial keratinocytes, 7 days incubation, FIG. 1-4
Protocol: Normal human epithelial keratinocytes, and keratinocyte growth medium (KGM^R-2 Bulletkit; CC-3107 from Clonetics, USA) were purchased from Göteborgs Termometerfabrik AB (Västra Frölunda, Sweden). The cells were cultured at 37° C. in 5% CO2 humidified air according to standard procedure. The cells used for the experiments were at the third passage. 48-well plates were used for the cultures. In each well about 3000 cells were seeded. For each concentration of prostaglandin analogues two wells were used. After completion of the incubation, the wells were washed twice with phosphate buffered saline (PBS). Thereafter the cells were fixed with 1% glutaraldehyde in PBS at +4° C. for 15 min. The wells were then again washed twice with PBS, and thereafter treated with 0.1% crystal violet solution (500 μl/well). The wells were then rinsed with distilled water for 15 sec, three times, and were left to dry completely. The absorbed colour was solubilized in 500 μl 2.5% sodiumdodecyl-sulphate (SDS) in distilled water for 3 hours. The absorbance of the fluid in the wells was determined using a microtiter well spectrophotometer (Multiscan RC V1.3-0) at 595 nm. The experiments were performed in duplicate (two wells). The incubation time was 7 days, and the incubation medium was changed after 3-4 days. The prostaglandin analogues were dissolved directly in the incubation medium. After appropriate incubation the density of cells in the wells was determined using the crystal violet method described above.

[3] = system: BAX gene expression (BAX-protein) in human keratinocytes; assay: Expression of the pro-apoptotic BAX gene by immunocytochemistry; type: cell-based
Protocol: The cells, cultivated essentially as described above, were trypsinized, the solution centrifuged, and the pellet resuspended and transferred to a microscopic slide with cover slip. Immunocytochemistry was performed according to standard technique. BAX (N-20)-affinity purified rabbit polyclonal antibodies were purchased from Santa Cruz Biotechnology Inc. (Santa Cruz, Calif.), and used at a dilution of 1:200. Secondary goat-antirabbit antibodies conjugated to horseradish peroxidase (Dako Envision+TM) obtained from Dako (Carpinteria, Calif., USA) were used for detecting the primary antibodies. After appropriate rinsing the preparations were incubated with […] as chromogenic substrate for the horseradish peroxidase for 10 min at room temperature. […] The preparations were finally examined in a Nikon FTX fluorescence microscope equipped with camera, and colour photographs were taken of representative cells.
In another set of experiments, intravital staining for detection of apoptosis/necrosis in keratinocytes cultivated as above in the absence and presence of BR280 (17-phenyl-18,19,20-trinor-PGA2) was performed with propidium-iodide/Hoechst 33342 (bisbenzimide) purchased from Sigma Chemical Company (St. Louis, Mo.). […] The cells were examined in a Nikon FTX fluorescence microscope equipped with a UV-2A filter and camera. […]

[4] = system: human keratinocytes; assay: Intravital staining with propidium-iodide/Hoechst 33342 for apoptosis/necrosis; type: cell-based; conditions: keratinocytes exposed for 7 days
Protocol: In another set of experiments, intravital staining for detection of apoptosis/necrosis in keratinocytes cultivated as above in the absence and presence of BR280 (17-phenyl-18,19,20-trinor-PGA2) was performed with propidium-iodide/Hoechst 33342 (bisbenzimide) purchased from Sigma Chemical Company (St. Louis, Mo.). A mixture of propidium-iodide (10 μg/ml) and Hoechst 33342 (5 μg/ml) was added to the culture medium. The cells were incubated in the medium for 10 min at 37° C. The medium was harvested for free floating cells while the attached cells were washed once with Ca^++/Mg^++ free Hanks solution (Sigma Chemical Company), or PBS. Thereafter 1.5 ml of a 0.5% trypsin/EDTA solution (Ca^++/Mg^++ free Hanks solution, or PBS) was added and incubation was carried out for 5 min at 37° C. The solution was then centrifuged for 1 min (500 g). The pellet was resuspended in 0.5 ml PBS, and the solution was centrifuged as above. The pellet was then suspended in 20 μl PBS, and the solution containing the cells was placed on a microscopic slide with cover slip. The cells were examined in a Nikon FTX fluorescence microscope equipped with a UV-2A filter and camera. Colour photographs were taken of representative cells. The prostaglandin analogue (BR280) was diluted directly in the culture medium. […]

[5] = system: human eye; assay: Hyperemia/irritation test using the human eye as a model; type: in vivo; conditions: for hyperemia and ocular irritation or pain after application (in words): human eye, topical, 3 individuals, about 10^−4 M and about 3×10^−4 M; for Difference in irritation PGA2 - JB991 acid / Difference in hyperemia PGA2 - JB991 acid: topical on eye, n = 3; for Difference in irritation PGA2 - JB991 acid: categorical scale, Mean ± SEM; for Difference in hyperemia PGA2 - JB991 acid: scale 0-3, Mean ± SEM
Protocol: PGA2 and 17-phenyl-18,19,20-trinor-PGA2, synthesized as described above, were formulated in vehicles suitable for hyperemia/irritation tests using the human eye as a model. The superficial redness of the eyes was documented by colour photographs before, and 15, 30, 60 and 120 min after application of the test substances. One eye was treated with the prostaglandin analogue and the other eye with the vehicle only. Ocular irritation or pain was recorded at the same time points. The two test substances at a concentration of 26 μg/ml (about 10^−4 M) were tested in the same eye of three healthy individuals a few days apart.
About a week later, a higher concentration of each compound, 84 μg/ml of PGA2 and 96 μg/ml of 17-phenyl-18,19,20-trinor-PGA2 (both concentrations corresponding to about 3×10^−4 M) was again tested a few days apart in the same eyes of the same individuals. The concentrations used are relevant since for the treatment of psoriasis the drugs have to be used at approximately this concentration range. The hyperemia was evaluated on a scale from 0 (no hyperemia) to 3 (maximum hyperemia) using half steps. A similar categorical scale was used for the ocular irritation or pain. […]

[6] = Dose 2 (84 μg/ml; JB991 acid 96 μg/ml), 0 min
[7] = Dose 2 (84 μg/ml; JB991 acid 96 μg/ml), 15 min
[8] = Dose 2 (84 μg/ml; JB991 acid 96 μg/ml), 30 min
[9] = Dose 2 (84 μg/ml; JB991 acid 96 μg/ml), 60 min
[10] = Dose 2 (84 μg/ml; JB991 acid 96 μg/ml), 120 min

In the case of O=C(O)CCC/C=C\CC1C(=O)C=CC1CCC(O)CCc1ccccc1 (stereo not drawn), the “hyperemia in the eye” value [1] is given as “caused some hyperemia in the eye”.
With O=C(O)CCC/C=C\CC1C(=O)C=CC1/C=C/C(O)COc1cccc(C(F)(F)F)c1 (stereo not drawn) [BR277, 16-phenoxy-(3-trifluormethyl)-17,18,19,20-tetranor-PGA2] the “antiproliferative potency relative to PGA2 and the other analogues” value [2] was “next most potent of the PGA2 analogues”.
In the case of O=C(O)CCC/C=C\CC1C(=O)C=CC1CCC(O)CCc1ccccc1 (stereo not drawn) [BR278, 13,14-dihydro-17-phenyl-18,19,20-trinor-PGA2], the “antiproliferative potency relative to PGA2 and the other analogues” value [2] is reported as “lowest potency”.
With O=C(O)CCC/C=C\CC1C(=O)C=CC1/C=C/C(O)CCc1ccccc1 (stereo not drawn) [BR280, 17-phenyl-18,19,20-trinor-PGA2] the “antiproliferative potency relative to PGA2 and the other analogues” value [2] was “even more potent than PGA2”, the “BAX gene expression (BAX-protein) immunostaining” value ([3]; human keratinocytes exposed at different concentrations, 2 days incubation) was “could be demonstrated” and the “BAX gene expression effect at low concentrations” value ([3]; lower concentrations than 10^−5 M) was “weak or absent”. For the same compound, the “signs of apoptosis by intravital staining” value [4] was “Markedly condensed and fragmented nuclei and apoptotic bodies could be demonstrated” and the “hyperemia and ocular irritation or pain after application (in words)” value [5] was “no hyperemic effect or irritative effect whatsoever”.
With CCCCC[C@H](O)/C=C/[C@H]1C=CC(=O)[C@@H]1C/C=C\CCCC(=O)O [PGA2, prostaglandin A2] the complete cell death ([2]; highest concentration tested) was “Neither PGA2 nor any of the analogues tested were able to cause complete cell death”, the “Difference in irritation PGA2 - JB991 acid” value (“Difference in irritation PGA2” below) ([5]; Dose 1 (26 μg/ml), 0 min) was 0.00 ± 0.00 and the “Difference in hyperemia PGA2 - JB991 acid” value (“Difference in hyperemia PGA2” for short) ([5]; Dose 1 (26 μg/ml), 0 min) was 0.00 ± 0.00. The “Difference in irritation PGA2” value ([5]; Dose 1 (26 μg/ml), 15 min) was 1.00 ± 0.29, the “Difference in hyperemia PGA2” value ([5]; Dose 1 (26 μg/ml), 15 min) was 1.33 ± 0.60 and the “Difference in irritation PGA2” value ([5]; Dose 1 (26 μg/ml), 30 min) was 1.17 ± 0.33. For the same compound, the “Difference in hyperemia PGA2” value ([5]; Dose 1 (26 μg/ml), 30 min) was 1.17 ± 0.44, the “Difference in irritation PGA2” value ([5]; Dose 1 (26 μg/ml), 60 min) was 0.50 ± 0.29 and the “Difference in hyperemia PGA2” value ([5]; Dose 1 (26 μg/ml), 60 min) was 0.67 ± 0.44. For the same compound, the “Difference in irritation PGA2” value ([5]; Dose 1 (26 μg/ml), 120 min) was 0.17 ± 0.17, the “Difference in hyperemia PGA2” value ([5]; Dose 1 (26 μg/ml), 120 min) was 0.17 ± 0.17 and the “Difference in irritation PGA2” value [5, 6] was 0.00 ± 0.00. For the same compound, the “Difference in hyperemia PGA2” value [5, 6] was 0.00 ± 0.00, the “Difference in irritation PGA2” value [5, 7] was 1.83 ± 0.44 *) and the “Difference in hyperemia PGA2” value [5, 7] was 2.17 ± 0.44 **). For the same compound, the “Difference in irritation PGA2” value [5, 8] was 1.33 ± 0.60, the “Difference in hyperemia PGA2” value [5, 8] was 2.17 ± 0.44 **) and the “Difference in irritation PGA2” value [5, 9] was 0.83 ± 0.44. The “Difference in hyperemia PGA2” value [5, 9] was 1.33 ± 0.60, the “Difference in irritation PGA2” value [5, 10] was 0.33 ± 0.17 and the “Difference in hyperemia PGA2” value [5, 10] was 0.50 ± 0.29. The “hyperemia and ocular irritation or pain after application (in words)” value [5] was “causes both these disadvantageous side-effects”.
